One sequence from PMC7352977 (Cancers, 2020) can be followed below.

One series has as its system HCT116. The series is described as follows: Cell proliferation assay (CCK-8), HCT116. It counts as cell-based. As to conditions: HCT116 (colon, KRAS G13D), 72 h, CCK-8, triplicate. How it is done: (§1) Cells (2 × 10^3/well, 100 μL final volume per well) for HCT116 and NCI-H460, 5 × 10^3 cells/well for SW480 and NCI-H23, and 1 × 10^4 cells/well for AsPC-1 cell lines were used in this assay (Table 4). All cells were allowed to attach for 24 h after plating, and the cells were treated with fresh media the next day. […] After the 72 h incubation, cell counting kit-8 (CCK-8) solution (10 μL/well) was added, and cells were incubated for a further 4 h at 37 °C CO2 incubator. The optical density (OD) of each well at 450 nm was measured by using the Microplate reader (BioTek, USA). Experiments were performed at least three times with representative data presented.

A further series has as its system A549. Nature of the series: MTT, wild-type KRAS A549 cell line. It counts as cell-based. Conditions: A549, compared with other tumor cell lines.
In another series the test system is NCI-H23. Nature of the series: Cell proliferation assay (CCK-8), NCI-H23. The class given is cell-based. As to conditions: NCI-H23 (lung, KRAS G12C), 72 h, CCK-8, triplicate. How it is done:
as §1

The next series deals with KRAS wild-type. Nature of the series: [α-32P] GTP binding assay, KRAS wild-type. The class given is biochemical, human. As to conditions: H-REV107 peptide, 30 °C. The method, then: His-tagged human KRAS wild-type and mutants (G12V, G12D, G12C, G13D, and Q61H) and H-REV107 were transformed into Escherichia coli BL21 (DE3) cells. Each individual colony was inoculated into […] of Luria-Bertani (LB) medium enriched with 10 μg/mL kanamycin, after which the bacteria were grown for 16 h at 37 °C. These cells were then added to 2 L of LB containing antibiotics and grown at 37 °C until the OD600 reached 0.5–0.6. The expression of the proteins was induced by 0.5 mM isopropyl-thio-β-D-1-thiogalactopyranoside (IPTG) at 25 °C, after which the bacterial cells were harvested by centrifugation at 3830 × g for 25 min at 4 °C, then disrupted by sonication in lysis buffer (50 mM HEPES (pH 7.5), 100 mM NaCl, and 2 mM MgCl2). The supernatant was subsequently incubated with Ni-NTA resin (BioRad) for 10 min. After washing, the bound protein was eluted from the beads with elution buffer (50 mM HEPES (pH 7.5), 500 mM NaCl, 2 mM MgCl2, and 400 mM imidazole). The eluted protein was further purified by fast protein liquid chromatography (FPLC) using a Superdex 200 10/300 GL column equilibrated with 50 mM HEPES (pH 7.5), 100 mM NaCl, and 2 mM MgCl2. The purity and identity of the proteins were determined by 15% SDS-PAGE. […]
In addition, the protein complex was incubated with [α-^32P] […] Protein-bound radioactive nucleotide was quantified by liquid scintillation counting.

The subject of series [1] is MEK/ERK signaling pathway. The series is described as follows: Western blot analysis of MEK/ERK signaling, SW480. It counts as cell-based. Conditions: SW480, 24 and 48 h. How it is done: (§2) Cells were plated in a 100 mm cell culture dish and incubated under standard conditions (37 °C under a humidified atmosphere containing 5% CO2) in RPMI-1640 media with 10% fetal bovine serum, 100 μ/mL penicillin, and 100 μ/mL streptomycin (Welgene, Korea). […] After treatment of 24, 48, and 72 h, the cells were lysed using protein extraction solution PRO-PREPTM (iNtRON Biotechnology, Korea) containing a protease inhibitor cocktail for 30 min at 4 °C. After this, the cells were centrifuged at 15,115 x g for 30 min. Protein content in the supernatant was measured with Bradford protein assay using bovine serum albumin (BSA). The protein was separated by 10% SDS-PAGE and transferred onto an immobilon-P membrane (Millipore, USA). Membrane was blocked in ProNA Protein-free 5X general or phospho-block solution (TransLab, Korea) for 1 h at room temperature. The membrane was incubated with primary antibodies against phosphorylated (p)-MEK1/2 (Ser217/221), total (t)-MEK1/2, p-ERK1/2 (Thr202/Tyr204), and t-ERK1/2 (Cell Signaling Technology, USA) at 4 °C overnight, washed with 1X PBS containing 0.1% Tween (PBST) three times, and incubated with anti-IgG secondary antibodies (Santa Cruz Biotechnology, USA) in PBST for 1 h. The transferred protein band was visualized with EzWestLumi plus (ATTO corporation, Japan). Probing for ß-acitn was used as a loading control.
(A western blot detects proteins with antibodies after separation by electrophoresis.)

Series [2] concerns AsPC-1 pancreatic cancer cells (xenograft). The series is described as follows: Tumor xenograft model, AsPC-1, nude mice. It counts as in vivo. As to conditions: abdominal cavity. How it is done: Five were deployed per group.
The cells used in the cancer animal model used human-specific pancreatic cancer cell liquor AsPC-1, which was defrosted more than 2 weeks before the animal model was created to obtain stable cell alcohol conditions, and were incubated three times. The growth medium used for cell culture was used by adding 10% fetal bovine serum and 1% penicillin/streptomycin to the RPMI-1640 medium used for AsPC-1 cell lines. On the day of the production of the cancer animal model, AsPC-1 cell line was removed from the cell culture flask by 0.25% Trypsin/EDTA and washed twice with PBS. The cell line was finally harried to HBSS + matrigel (1:1). Since the number of cells to be used in the experiment was 1 × 10^6/head, the finally disheveled cell concentration was 1 × 10^7/mL. It was stored in ice until the test was used. In the case of cell transplantation, 100 μL was transplanted. The separation was performed when the average volume of the tumor had grown to more than 100 mm^3. A random separation of groups was conducted to ensure that the average tumor volume was equal in the day of separation, and the separation of groups was carried out into a total of three groups.

Another series deals with SW480. Nature of the series: Cell proliferation assay (CCK-8), SW480. Conditions: SW480 (colon, KRAS G12V), 72 h, CCK-8, triplicate. The class given is cell-based. The method, then:
as §1

The subject of another series is AsPC-1. Nature of the series: Cell proliferation assay (CCK-8), AsPC-1. As to conditions: AsPC-1 (pancreas, KRAS G12D), 72 h, CCK-8, triplicate. It counts as cell-based, human. How it is done:
as §1

Series [3] deals with MEK/ERK signaling pathway. Nature of the series: Western blot analysis of MEK/ERK signaling, AsPC-1. It counts as cell-based, human. Conditions: AsPC-1, 24 and 48 h. The method, then: as §2
Another series is described as follows: Solubility in water. It counts as physicochemical.
The test system of another series is NCI-H460. Nature of the series: Cell proliferation assay (CCK-8), NCI-H460. The class given is cell-based. As to conditions: NCI-H460 (lung, KRAS Q61H), 72 h, CCK-8, triplicate. How it is done: as §1

As usually defined, the GI50 is the concentration that inhibits growth by half. Read a high GI50 as lower sensitivity of the cells. On to LYDVAGSDKY [H-REV107 peptide], for which the “GI50 (in words)” value with HCT116, with NCI-H23 and with NCI-H460 was “millimolar ranges” throughout. In the series with A549, the “effect on proliferation of wild-type KRAS A549 cell line (in words)” value is “higher concentration state of H-REV107 peptide had an effect on the proliferation”. The “GTP binding activity to KRAS wild-type, decreased to” value in the series with KRAS wild-type worked out at 12%. The “expression level of total MEK/ERK protein (in words)” value in series [1] and in series [3] was “little effect” throughout. The “phosphorylation levels of MEK/ERK (in words)” value in series [1] is reported as “decrease the phosphorylation levels of MEK/ERK”. Also, in series [2] (200 mg/kg), the “growth rate of tumors, high concentration group (in words)” value is “lowest growth rate”. Besides, in [2] (H-REV107 peptide experimental group), the “growth rate of tumors compared to Vehicle (in words)” value is on record as “lower growth rate of tumors”. In addition, the “tumor volume compared to Vehicle (in words)” value in [2] (all doses (50 and 200 mg/kg), day 3 to day 32 after inoculation) was “decrease”. For the same sequence, the GI50 in the series with SW480 came out at 358 µM; in the series with AsPC-1, 417 µM. Besides, the “phosphorylation levels of MEK/ERK, tendency to decrease (in words)” value in series [3] is “little”. Further, the “solubility in water (in words)” value in “Solubility in water” is “highly soluble”.
